Laboratory results: patent US20250277012A1 (Protagonist Therapeutics, Inc., priority 2021, published 2025)
Starred links: 1 amine or outer side, 2 acyl side, 3 side chain; linkers in the order of their positions; H or OH if unused. Positions of bridges follow the written chain, without caps; N, C: chain ends. Non-standard residues stand in square brackets, D forms with d. Residues, ends and D or L forms follow the SMILES beside them. Groups on a side chain read outwards from the residue. *: point of attachment. C18 diacid = O=C(O)CCCCCCCCCCCCCCCCC(=O)*; Dip = N[C@H](C(=O)O)C(c1ccccc1)c1ccccc1; γGlu = O=C(O)[C@H](CCC(=O)[*:2])N[*:1]; Palmitoyl = CCCCCCCCCCCCCCCC(=O)*; β3hF = N[C@H](CC(=O)O)Cc1ccccc1; dPen = CC(C)(S)[C@@H](N)C(=O)O; Isovaleryl = CC(C)CC(=O)*; hCys = N[C@@H](CCS)C(=O)O; AEEA = NCCOCCOCC(=O)O; Ahx = NCCCCCC(=O)O

What follows are compounds tested against T1, ferroportin (Homo sapiens, UniProt Q9NP59) (assay: FPN activity assay: ferroportin-GFP internalization/degradation in HEK293 cells). Details: ferroportin-GFP HEK293 cells, at least 18 hours; read-out: FPN IC50.
T1 sequence (Q9NP59 1-571): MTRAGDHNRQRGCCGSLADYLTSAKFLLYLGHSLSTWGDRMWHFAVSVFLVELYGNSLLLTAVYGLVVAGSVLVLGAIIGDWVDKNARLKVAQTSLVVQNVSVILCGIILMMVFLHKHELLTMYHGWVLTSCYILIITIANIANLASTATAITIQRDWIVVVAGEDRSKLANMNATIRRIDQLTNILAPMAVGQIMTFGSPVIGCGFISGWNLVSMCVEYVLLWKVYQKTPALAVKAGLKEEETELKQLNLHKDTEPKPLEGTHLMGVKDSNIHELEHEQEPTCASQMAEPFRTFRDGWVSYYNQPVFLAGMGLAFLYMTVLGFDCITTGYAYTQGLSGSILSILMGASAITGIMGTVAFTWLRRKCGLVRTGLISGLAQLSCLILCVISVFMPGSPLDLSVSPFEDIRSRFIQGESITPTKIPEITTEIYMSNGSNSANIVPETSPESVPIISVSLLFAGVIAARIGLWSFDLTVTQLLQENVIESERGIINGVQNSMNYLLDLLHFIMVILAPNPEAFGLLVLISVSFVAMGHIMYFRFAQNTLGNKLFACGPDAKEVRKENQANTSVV
Format: cell-based
Set-up: expressed in transfected cells
Method: Following internalization, the ferroporin protein is degraded.
A retro inverse peptide is a peptide with a reversed sequence in all D amino acids. An example is that Hy-Glu-Thr-His-NH2 becomes Hy-DHis-DThr-DGlu-NH2. The EC50 of these reference compounds for ferroportin internalization/degradation was determined according to the FPN activity assay described above. These peptides served as control standards.

CC[C@H](C)[C@H](NC(=O)[C@@H]1CSSC[C@H](NC(=O)[C@@H](NC(=O)[C@H](Cc2c[nH]cn2)NC(=O)[C@@H](NC(=O)[C@H](CCC(=O)O)NC(=O)CC(C)C)[C@@H](C)O)C(c2ccccc2)c2ccccc2)C(=O)N1)C(=O)N[C@H](CCCCN)C(=O)N[C@H](CC(=O)N[C@@H](CCCCNC(=O)COCCOCCNC(=O)COCCOCCNC(=O)CCCCCNC(=O)CCCCCCCCCCCCCCCCC(=O)O)C(=O)N[C@H](CCCCN)C(N)=O)Cc1ccccc1 [Compd 25] (Isovaleryl-ETH[Dip]CCI[dK][β3hF]K([AEEA-AEEA-Ahx-C18 diacid])[dK]-NH2; disulfide 5-6) and CC[C@H](C)[C@H](NC(=O)[C@@H]1CSSC[C@H](NC(=O)[C@@H](NC(=O)[C@H](Cc2c[nH]cn2)NC(=O)[C@@H](NC(=O)[C@H](CCC(=O)O)NC(=O)CC(C)C)[C@@H](C)O)C(c2ccccc2)c2ccccc2)C(=O)N1)C(=O)N[C@H](CCCCN)C(=O)N[C@H](CC(=O)N[C@@H](CCCCNC(=O)COCCOCCNC(=O)COCCOCCNC(=O)CC[C@H](NC(=O)CCCCCCCCCCCCCCCCC(=O)O)C(=O)O)C(=O)N[C@H](CCCCN)C(N)=O)Cc1ccccc1 [Compd 34] (Isovaleryl-ETH[Dip]CCI[dK][β3hF]K([AEEA-AEEA-γGlu-C18 diacid])[dK]-NH2; disulfide 5-6) fall in the same range of DC50: 0.1 to 0.5 µM for the first, 0.1 to 0.5 µM for the second.

Compared with CC(C)CC(=O)N[C@@H](CCC(=O)O)C(=O)N[C@H](C(=O)N[C@@H](Cc1c[nH]cn1)C(=O)N[C@H](C(=O)N1CCC[C@H]1C(=O)N[C@H]1CSSC[C@@H](C(=O)N[C@H](CCCCN)C(=O)N[C@H](CC(=O)N[C@@H](CCCCNC(=O)COCCOCCNC(=O)COCCOCCNC(=O)CCCCCNC(=O)CCCCCCCCCCCCCCCCC(=O)O)C(=O)N[C@H](CCCCN)C(N)=O)Cc2ccccc2)NC1=O)C(c1ccccc1)c1ccccc1)[C@@H](C)O [Compd 26] (Isovaleryl-ETH[Dip]PCC[dK][β3hF]K([AEEA-AEEA-Ahx-C18 diacid])[dK]-NH2; disulfide 6-7), CC(C)CC(=O)N[C@@H](CCC(=O)O)C(=O)N[C@H](C(=O)N[C@@H](Cc1c[nH]cn1)C(=O)N[C@H](C(=O)N1CCC[C@H]1C(=O)N[C@H]1CSSC[C@@H](C(=O)N[C@H](CCCCN)C(=O)N[C@H](CC(=O)N[C@@H](CCCCNC(=O)COCCOCCNC(=O)COCCOCCNC(=O)CC[C@H](NC(=O)CCCCCCCCCCCCCCCCC(=O)O)C(=O)O)C(=O)N[C@H](CCCCN)C(N)=O)Cc2ccccc2)NC1=O)C(c1ccccc1)c1ccccc1)[C@@H](C)O [Compd 28] (Isovaleryl-ETH[Dip]PCC[dK][β3hF]K([AEEA-AEEA-γGlu-C18 diacid])[dK]-NH2; disulfide 6-7) is higher in DC50: 0.01 to 0.1 µM for the first, 0.1 to 0.5 µM for the second.

First: CC[C@H](C)[C@H](NC(=O)[C@@H]1CSSC[C@H](NC(=O)[C@H](Cc2c[nH]cn2)NC(=O)[C@@H](NC(=O)[C@H](CCC(=O)O)NC(=O)CC(C)C)[C@@H](C)O)C(=O)N2CCC[C@H]2C(=O)N1)C(=O)N[C@@H](CCCCNC(=O)COCCOCCNC(=O)COCCOCCNC(=O)CC[C@H](NC(=O)CCCCCCCCCCCCCCCCC(=O)O)C(=O)O)C(=O)N[C@H](CC(=O)N[C@H](CCCCN)C(N)=O)Cc1ccccc1 [Compd 29] (Isovaleryl-ETHCPCIK([AEEA-AEEA-γGlu-C18 diacid])[β3hF][dK]-NH2; disulfide 4-6)
Second: CC[C@H](C)[C@H](NC(=O)[C@@H]1CSSC[C@H](NC(=O)[C@H](Cc2c[nH]cn2)NC(=O)[C@@H](NC(=O)[C@H](CCC(=O)O)NC(=O)CC(C)C)[C@@H](C)O)C(=O)N2CCC[C@H]2C(=O)N1)C(=O)N[C@H](CCCCN)C(=O)N[C@H](CC(=O)N[C@@H](CCCCNC(=O)COCCOCCNC(=O)COCCOCCNC(=O)CC[C@H](NC(=O)CCCCCCCCCCCCCCCCC(=O)O)C(=O)O)C(=O)N[C@H](CCCCN)C(N)=O)Cc1ccccc1 [Compd 33] (Isovaleryl-ETHCPCI[dK][β3hF]K([AEEA-AEEA-γGlu-C18 diacid])[dK]-NH2; disulfide 4-6)
The DC50 of the first is lower: 0.1 to 0.5 µM for the first, over 0.5 µM for the second.

First: CCCCCCCCCCCCCCCC(=O)NCCCCCC(=O)NCCCC[C@H](NC(=O)C[C@H](Cc1ccccc1)NC(=O)[C@@H](CCCCN)NC(=O)[C@@H](NC(=O)[C@H](C)NC(=O)[C@H]1CSSC[C@H](NC(=O)[C@H](CCC(=O)O)NC(=O)CC(C)C)C(=O)N[C@@H](Cc2c[nH]cn2)C(=O)N[C@@H](C(c2ccccc2)c2ccccc2)C(=O)N1)[C@@H](C)CC)C(=O)N[C@H](CCCCN)C(=O)N[C@@H](C)C(N)=O [Compd 46] (Isovaleryl-ECH[Dip][dC]AI[dK][β3hF]K([Ahx-Palmitoyl])[dK]A-NH2; disulfide 2-5)
Second: CCCCCCCCCCCCCCCC(=O)NCCCCCC(=O)NCCCC[C@H](NC(=O)C[C@H](Cc1ccccc1)NC(=O)[C@@H](CCCCN)NC(=O)[C@@H](NC(=O)[C@@H]1CSSC[C@H](NC(=O)[C@@H](NC(=O)[C@H](CCC(=O)O)NC(=O)CC(C)C)[C@@H](C)O)C(=O)N[C@@H](C(c2ccccc2)c2ccccc2)C(=O)N2CCC[C@H]2C(=O)N1)[C@@H](C)CC)C(=O)N[C@H](CCCCN)C(N)=O [Compd ID 2, Isovaleric Acid-E-T-[Cys]-[Dpa]-P-[Cys]-I-[(D)Lys]-[bhPhe]-[Lys(Ahx_Palm)]-[(D)Lys]-NH2] (Isovaleryl-ETC[Dip]PCI[dK][β3hF]K([Ahx-Palmitoyl])[dK]-NH2; disulfide 3-6)
The DC50 of the first is lower: 0.001 to 0.01 µM for the first, 0.1 to 0.5 µM for the second.

CCCCCCCCCCCCCCCC(=O)N[C@@H](CCC(=O)NCCCC[C@H](NC(=O)[C@@H](NC(=O)[C@@H]1CSSC[C@H](NC(=O)[C@@H]2CCCN2C(=O)[C@H](Cc2ccccc2)NC(=O)[C@H](Cc2c[nH]cn2)NC(=O)[C@@H](NC(=O)[C@H](CC(=O)O)NC(=O)CC(C)C)[C@@H](C)O)C(=O)N1)[C@@H](C)CC)C(=O)N[C@@H](Cc1ccccc1)C(=O)N[C@@H](CCC(=O)O)C(=O)N1CCC[C@H]1C(=O)N[C@@H](CCCNC(=N)N)C(=O)O)C(=O)O [Compd 101] (Isovaleryl-DTHFPCCIK([γGlu-Palmitoyl])FEPR-OH; disulfide 6-7) and CCCCCCCCCCCCCCCC(=O)NCCCCCC(=O)NCCCC[C@H](NC(=O)C[C@H](Cc1ccccc1)NC(=O)[C@H]1CSSC[C@@H](NC(=O)CC(C)C)C(=O)N[C@@H]([C@@H](C)O)C(=O)N[C@@H](Cc2c[nH]cn2)C(=O)N[C@@H](C(c2ccccc2)c2ccccc2)C(=O)N2CCC[C@H]2C(=O)N[C@@H](C)C(=O)N[C@@H]([C@@H](C)CC)C(=O)N1)C(=O)N[C@H](CCCCN)C(N)=O [compound 105] (Isovaleryl-[dC]TH[Dip]PAI[dC][β3hF]K([Ahx-Palmitoyl])[dK]-NH2; disulfide 1-8) fall in the same range of DC50: 0.01 to 0.1 µM for the first, 0.01 to 0.1 µM for the second.

First: CCCCCCCCCCCCCCCC(=O)NCCCCCC(=O)NCCCC[C@H](NC(=O)C[C@H](Cc1ccccc1)NC(=O)[C@@H]1CSSC(C)(C)[C@@H](NC(=O)CC(C)C)C(=O)N[C@@H]([C@@H](C)O)C(=O)N[C@@H](Cc2c[nH]cn2)C(=O)N[C@@H](C(c2ccccc2)c2ccccc2)C(=O)N2CCC[C@H]2C(=O)N[C@@H](C)C(=O)N[C@@H]([C@@H](C)CC)C(=O)N1)C(=O)N[C@H](CCCCN)C(N)=O [compound 103] (Isovaleryl-[dPen]TH[Dip]PAIC[β3hF]K([Ahx-Palmitoyl])[dK]-NH2; disulfide 1-8)
Second: CCCCCCCCCCCCCCCC(=O)NCCCCCC(=O)NCCCC[C@H](NC(=O)C[C@H](Cc1ccccc1)NC(=O)[C@@H]1NC(=O)[C@H]([C@@H](C)CC)NC(=O)[C@H](C)NC(=O)[C@@H]2CCCN2C(=O)[C@H](C(c2ccccc2)c2ccccc2)NC(=O)[C@H](Cc2c[nH]cn2)NC(=O)[C@H]([C@@H](C)O)NC(=O)[C@@H](NC(=O)CC(C)C)CSSC1(C)C)C(=O)N[C@H](CCCCN)C(N)=O [compound 104] (Isovaleryl-CTH[Dip]PAI[dPen][β3hF]K([Ahx-Palmitoyl])[dK]-NH2; disulfide 1-8)
The DC50 of the first is higher: 0.1 to 0.5 µM for the first, 0.01 to 0.1 µM for the second.

First: CCCCCCCCCCCCCCCC(=O)NCCCCCC(=O)NCCCC[C@H](NC(=O)C[C@H](Cc1ccccc1)NC(=O)[C@H]1CSSC[C@H](NC(=O)CC(C)C)C(=O)N[C@@H]([C@@H](C)O)C(=O)N[C@@H](Cc2c[nH]cn2)C(=O)N[C@@H](C(c2ccccc2)c2ccccc2)C(=O)N2CCC[C@H]2C(=O)N[C@@H](C)C(=O)N[C@@H]([C@@H](C)CC)C(=O)N1)C(=O)N[C@H](CCCCN)C(N)=O [compound 106] (Isovaleryl-CTH[Dip]PAI[dC][β3hF]K([Ahx-Palmitoyl])[dK]-NH2; disulfide 1-8)
Second: CCCCCCCCCCCCCCCC(=O)NCCCCCC(=O)NCCCC[C@H](NC(=O)C[C@H](Cc1ccccc1)NC(=O)[C@@H]1CSSC[C@@H](NC(=O)CC(C)C)C(=O)N[C@@H]([C@@H](C)O)C(=O)N[C@@H](Cc2c[nH]cn2)C(=O)N[C@@H](C(c2ccccc2)c2ccccc2)C(=O)N2CCC[C@H]2C(=O)N[C@@H](C)C(=O)N[C@@H]([C@@H](C)CC)C(=O)N1)C(=O)N[C@H](CCCCN)C(N)=O [compound 107] (Isovaleryl-[dC]TH[Dip]PAIC[β3hF]K([Ahx-Palmitoyl])[dK]-NH2; disulfide 1-8)
The DC50 of the first is higher: 0.1 to 0.5 µM for the first, 0.01 to 0.1 µM for the second.

Compound CCCCCCCCCCCCCCCC(=O)NCCCCCC(=O)NCCCC[C@H](NC(=O)C[C@H](Cc1ccccc1)NC(=O)[C@@H]1CCSSC[C@H](NC(=O)CC(C)C)C(=O)N[C@@H]([C@@H](C)O)C(=O)N[C@@H](Cc2c[nH]cn2)C(=O)N[C@@H](C(c2ccccc2)c2ccccc2)C(=O)N2CCC[C@H]2C(=O)N[C@@H](C)C(=O)N[C@@H]([C@@H](C)CC)C(=O)N1)C(=O)N[C@H](CCCCN)C(N)=O [compound 108] (Isovaleryl-CTH[Dip]PAI[hCys][β3hF]K([Ahx-Palmitoyl])[dK]-NH2; disulfide 1-8) has a DC50 of 0.01 to 0.1 µM.
